Reference: PubChem BioAssay (NCI)
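Dose response: 5 concentrations. Exposure: 48 h. Format: 96-well plates. Endpoint: linear interpolation; highest concentration if not reached. GI50 is the concentration that inhibits growth by half. TGI: total growth inhibition.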 Where a SMILES comes first, the peptide text is derived from it. [ ]: non-standard residue; d: D form. Phe(4-Cl) = N[CH](Cc1ccc(Cl)cc1)C(=O)O

Legend:
Assay in all cases: inhibition of tumour cell growth, NCI panel, 48 h
NCI-H226 lung = system: NCI-H226 lung
SF-295 CNS = system: SF-295 CNS
NCI-H23 lung = system: NCI-H23 lung
SK-MEL-5 melanoma = system: SK-MEL-5 melanoma
NCI-H460 lung = system: NCI-H460 lung
HT29 colon = system: HT29 colon
EKVX NSCLC = system: EKVX NSCLC
HS 578T breast = system: HS 578T breast
BT-549 breast = system: BT-549 breast
PC-3 prostate = system: PC-3 prostate

| Compound | TGI (NCI-H226 lung) | TGI (SF-295 CNS) | TGI (NCI-H23 lung) | TGI (SK-MEL-5 melanoma) | TGI (NCI-H460 lung) | TGI (HT29 colon) | GI50 (NCI-H226 lung) | GI50 (SF-295 CNS) | GI50 (NCI-H23 lung) | GI50 (SK-MEL-5 melanoma) | GI50 (NCI-H460 lung) | GI50 (HT29 colon) | GI50 (EKVX NSCLC) | TGI (EKVX NSCLC) | TGI (HS 578T breast) | TGI (BT-549 breast) | GI50 (PC-3 prostate) | TGI (PC-3 prostate) | GI50 (HS 578T breast) | GI50 (BT-549 breast) |
| --- | --- | --- | --- | --- | --- | --- | --- | --- | --- | --- | --- | --- | --- | --- | --- | --- | --- | --- | --- | --- |
| Nc1ccc(/C=C/c2ccnc3ccccc23)cc1 | 47.7 µM | 46.1 µM | 50.1 µM | 29.6 µM | 49.1 µM | 65.1 µM |  |  |  |  |  |  |  |  |  |  |  |  |  |  |
| CC(=O)[CH-]C(=O)c1ccccc1.CC(=O)[CH-]C(=O)c1ccccc1.O=C([O-])c1ccc([O-])cc1.O=C([O-])c1ccc([O-])cc1.[Ti+4] | > 100 µM | > 100 µM | > 100 µM | > 100 µM | > 100 µM | > 100 µM | 37.3 µM | 41.6 µM | 66.2 µM | 43.9 µM | 44.2 µM | 51.2 µM | 23.9 µM | 79.6 µM |  |  |  |  |  |  |
| CCCCCCCCCCCCCC1CCC(CC)N1 (stereo not drawn) | 30.2 µM | 32.6 µM | 32.9 µM | 31.8 µM | 18.5 µM | 15.1 µM |  |  |  |  |  |  |  | 31.4 µM |  |  |  |  |  |  |
| COc1ccc2c(c1)C=C([N+](=O)[O-])C(C1OC(C)(C)OC1C1COC(C)(C)O1)O2 (stereo not drawn) | 21.6 µM | 22.2 µM | 24.2 µM | 9.17 µM | 13.6 µM | 4.34 µM |  |  |  |  |  |  |  | 21.2 µM | > 100 µM | 12.6 µM |  |  |  |  |
| CC(C)(C)OC(=O)Cc1ccc2c(ccn2Cc2ccccc2)c1 | > 100 µM | > 100 µM | > 100 µM | > 100 µM | > 100 µM | 36.4 µM |  |  |  |  |  |  |  | > 100 µM |  |  |  |  |  |  |
| NC(N)=NCCCn1c2c(c3ccccc3c1=O)C(=O)c1ccccc1-2 |  | 7.72 µM |  | 29.5 µM | > 100 µM | > 100 µM |  | 1.66 µM |  | 15.1 µM | 15.3 µM | 32.6 µM | 16.6 µM | 58.5 µM | 25.7 µM | 5.51 µM | 52.1 µM | > 100 µM | 2.67 µM | 2.28 µM |
| CC(C)N(C(=O)C12CC3CC(CC(C3)C1)C2)C(C)C | > 50 µM | > 50 µM | > 50 µM | > 50 µM | > 50 µM | > 50 µM |  |  |  |  |  |  |  | > 50 µM |  |  |  |  |  |  |
| CC[O-].CC[O-].O=C1c2ccccc2C(=O)c2c(O)ccc([O-])c21.O=C1c2ccccc2C(=O)c2c(O)ccc([O-])c21.[Ti+4] | > 100 µM | > 100 µM | > 100 µM | > 100 µM | > 100 µM | > 100 µM | > 100 µM |  |  |  |  |  |  | > 100 µM |  |  |  |  |  |  |
| N#Cc1nc(C2OC(COC(=O)c3ccccc3)C(OC(=O)c3ccccc3)C2OC(=O)c2ccccc2)oc1N (stereo not drawn) | > 100 µM | > 100 µM | > 100 µM | 40 µM | > 100 µM | > 100 µM |  |  |  |  |  |  |  | > 100 µM |  |  |  |  |  |  |
| CC(O)C(NC(=O)C(Cc1ccccc1)NC(=O)C(NC(=O)C(CCCCN)NC(=O)C(Cc1c[nH]c2ccccc12)NC(=O)C(Cc1ccc(O)cc1)NC(=O)C(Cc1ccc(Cl)cc1)NC(=O)C(N)Cc1ccccc1)C(C)O)C(N)=O (stereo not drawn) (H-F[Phe(4-Cl)]YWKTFT-NH2; configuration not given here) |  | 21.3 µM | 41.2 µM |  | 32.5 µM | 62.8 µM |  |  |  |  |  |  |  | 32.2 µM |  |  |  |  |  |  |
| O=C(O)CN(c1ccccc1)S(=O)(=O)c1ccccc1[N+](=O)[O-] | > 100 µM | > 100 µM | > 100 µM | > 100 µM | > 100 µM | > 100 µM |  |  |  |  |  |  |  | > 100 µM |  |  |  |  |  |  |
| Cc1ccc(S(=O)(=O)n2c(-c3ccccc3)c(-c3ccccc3)c3ccccc32)cc1 | > 100 µM | > 100 µM | > 100 µM | > 100 µM | > 100 µM | > 100 µM |  |  |  |  |  |  |  | > 100 µM |  |  |  |  |  |  |
| COc1ccc2c(c1)CCC1C3(CCCC21C)OCCO3 (stereo not drawn) | 35.7 µM | 40.8 µM | 34.2 µM | 31.1 µM | 46.3 µM | 33.5 µM |  |  |  |  |  |  |  | 82.3 µM |  |  |  |  |  |  |
| Cc1ccc(N(C(=O)CC(=O)NN)C(=O)c2ccccc2Cl)cc1 | > 100 µM | > 100 µM | > 100 µM |  | > 100 µM | > 100 µM |  |  |  |  |  |  |  | > 100 µM |  |  |  |  |  |  |
| Cc1cc(C)nc(NS(=O)(=O)c2ccc(Nc3c4ccccc4nc4c(C(=O)Nc5ccc(S(=O)(=O)Nc6cc(C)on6)cc5)cccc34)cc2)n1 | 46.5 µM | 63.1 µM | 51.1 µM | 36.3 µM | 61 µM | 35.5 µM |  |  |  |  |  |  |  | 66.7 µM |  |  |  |  |  |  |
| Cc1ccc(Nc2nc3c(s2)C(=O)c2ccccc2C3=O)c(C)c1 | 17.6 µM | 29.4 µM | 25.6 µM | 28.2 µM | 54.2 µM | 48.3 µM |  |  |  |  |  |  |  | 33 µM |  |  |  |  |  |  |
| CCOC(=O)CN=c1nc(SC)sc2c(C(=O)OCC)nc(Sc3ccccc3)n12 | > 100 µM |  |  | > 100 µM |  | > 100 µM |  |  |  |  |  |  |  | > 100 µM |  |  |  |  |  |  |
| COc1cc(OC(=O)c2c(O)cc(O)c(O)c2C)cc(C)c1C(=O)Oc1cc(C)c(C(=O)O)c(O)c1 | > 100 µM | > 100 µM | > 100 µM | > 100 µM | > 100 µM | > 100 µM |  |  |  |  |  |  |  | > 100 µM |  |  |  |  |  |  |
